Consider nine compounds from patent US12533425B2, “Methods and systems using peptides for targeting and mapping human nerves in image guided surgery, diagnostics and therapeutic delivery” (ALUME BIOSCIENCES, INC., priority 2019, dated 2026).

No end group written: not given here.

The test system of assay [1] is human sural nerve. Nature of the assay: Topical application of FAM-labelled peptides on sections of human sural nerve and temporalis muscle. Type of assay: binding. The following applies: for effect of truncation on binding and solubility: deletion from C terminus of HNP401; for normalized average signal intensity for nerve binding: normalized to parent FAM-HNP401, topical 100 μM, human sural nerve sections; for nerve binding and nerve to muscle contrast (words): topical 100 μM, human nerve and temporalis muscle sections. The text has this:
To determine the affinity of phage selected peptides for binding to human nerve they were chemically synthesized by solid-phase synthesis and labeled with fluorescein at the C-terminus via a GGC linker. Peptides were topically applied to sectioned human sural nerve and human temporalis muscle to determine nerve to muscle contrast. […] To confirm binding and contrast of HNP401 for additional nerve types binding was compared in nerve and muscle with both HNP401 and NP41 on facial brachial plexus nerve (FIG. 9). […] FAM-HNP401 was additionally tested topically on ex-vivo tissue for labeling of mouse facial nerve with surrounding muscle (FIG. 10, J-M).
To test the affinity of selected phage display peptides for binding to human nerves, they were chemically synthesized by solid-phase synthesis and labeled with fluorescein at the C-terminus. Peptides were topically applied to sections of surgically harvested human sural nerve and temporalis muscle to determine nerve to muscle contrast for selected peptides and controls (FIG. 23). […] To quantify differential binding to nerve versus muscle, fluorescence signal intensity was measured for ROIs from the perineurium of select nerves and human temporalis muscle.
To enhance and attempt to determine the core binding domain of HNP401, systematic deletion of two amino acids from the C or N terminus was performed (see, for example, FIG. 30) followed by binding analysis on human sural nerve sections (FIG. 20). In each case nerve binding and signal intensity was normalized to the parent FAM-HNP401 peptide (FIG. 20J).
Image J was used to analyze and compare images acquired using the confocal microscope and the Lumar dissecting scope. For each experimental set where probes were compared, we kept the acquisition parameters identical so as to directly compare the data obtained. […] All raw image files for a given experimental cohort were loaded at the same time into Image J as 16-bit tiff images. We then levelled the image for tissue treated with FAM-HNP401. Once these levels were set, the settings are propagated to all images in one step using Image J. The brightest image is set as the benchmark for all other images in the cohort to avoid saturating when the leveling is propagated.

Assay [2] in a line: Fluorescent plate reader assay of quenching of FAM-NP41 fluorescence by food dyes. The source says: (§1) FIGS. 21A-21C: Food dyes efficiently quench FAM-NP41 bladder fluorescence. A fluorescent plate reader assay was used to show dose dependent quenching of FAM-NP41 fluorescence. Erythrosine extra bluish (Santa Cruz Biotechnology, Inc.) was the most efficient quencher with >˜80% quenching at 2.5 times dye to fluorescein ratio and >95% quenching at 5× dye to fluorescein ratio (A). Other food dyes tested included Allura Red and Sunset Yellow. To test for quenching in-vivo we administered, by direct iv injection, 50 mg/kg MW 879.76 (˜1.5 μmoles per 25 gm mouse) to mice that had been injected with 150 nmoles of FAM-NP41 2 hours prior. This represents approximately a 10× dye to FAM-NP41 dose. Some bladder fluorescence remained after imaging so additional dye (30 μl, 10 mM Erythrosin extra bluish) was injected directly into the bladder. […] Dye would likely not be needed if this method was used for human patients as bladder catheterization in patients could be started as FAM-NP41 is administered so bladder fluorescence could be washed out.

The test system of assay [3] is bladder fluorescence. Nature of the assay: In-vivo quenching of FAM-NP41 bladder fluorescence. On the set-up: species or system mouse. As to conditions: 50 mg/kg i.v. plus 30 μl 10 mM intra bladder, 150 nmoles FAM-NP41 2 hours prior.
Description: as §1

Assay [4] concerns rat prostate cavernosal nerve. Nature of the assay: In-vivo labelling of rat prostate and sciatic nerve. The following applies: i.v., FAM-labelled peptide. The method, then: FIG. 6: Fluorescent labeling of rat prostate cavernosal nerve in live rats.
Either 150 or 450 nmoles nmoles of fluorescein labeled synthetic peptides were injected intravenously into mice. After a 2 hour waiting period for washout of nonspecific binding, mice were anesthetized and skin incisions were made over the dorsal surface of the hind legs to expose the sciatic nerve. Brightfield and fluorescent images were obtained with a dissecting microscope using Metamorph software (FIG. 1). Quantitation of fluorescence of nerves and adjacent non-nerve tissue was performed with Image J (FIG. 2). Peptides were also topically applied to human nerve sections. […]
Following anesthesia with intra-peritoneal injection of ketamine (80 mg/kg) and midazolam (40 mg/kg), FAM-NP41 or its variants were administered into mice retro-orbitally. […] The autonomic nerve along the cavernosal vessel in the prostate was imaged and recorded using a custom-made surgical imaging system. This system is a modified from Olympus MVX10 scope capable of hi-resolution fluorescence, RGB reflectance and realtime overlay with zoom from 0.6 to 5.7 cm field of view. ImageJ was used for quantitative analysis of nerve contrast for each peptide dye conjugate tested. Images of autonomic nerve in prostate were selected from the recorded files and magnified 300-400% prior to selection of ROI and measurement. […]

As to “Ac-SGQVPWEEPYYVVKKGGC [HNP401-C-2, with GGC linker, tested FAM labelled]”, the “effect of truncation on binding and solubility” value in assay [1] is recorded as “tolerated”. As for “Ac-QVPWEEPYYVVKKSSGGC [HNP401-N-2, with GGC linker, tested FAM labelled]”, in assay [1] (human sural nerve vs temporalis muscle), the “normalized nerve to temporalis muscle contrast, increase with respect to FAM-HNP401” value is 3 fold. Besides, in assay [1], the “normalized average signal intensity for nerve binding” value (“normalized average signal intensity” for short) was 2.02±0.65. Besides, in assay [1] (topical 100 uM FAM labelled, human nerve sections, n=5), the “average signal intensity, nerve binding of deletion variants” value was 1498.73 (+/−517.63).

Regarding “Ac-EEPYYVVKKSSGGC [HNP401-N-6, with GGC linker, tested FAM labelled]”, in assay [1], the “normalized average signal intensity” value came to 1.0±0.34.

Regarding “Ac-SGQVPWEEPYYVVGGC [HNP401-C-4, with GGC linker, tested FAM labelled]”, in assay [1], the “effect of truncation on binding and solubility” value was “reduced dramatically”; the “normalized average signal intensity” value is recorded as 0.49±0.11. With `O=C1OC2(c3ccccc31)c1cc(I)c(O)c(I)c1Oc1c2cc(I)c(O)c1I` [Erythrosine extra bluish], the “quenching of FAM-NP41 fluorescence” value is recorded as greater than 80% in assay [2] (2.5 times dye to fluorescein ratio) and greater than 95% in assay [2] (5× dye to fluorescein ratio). Also, the “bladder fluorescence after quencher” value in assay [3] is “near background level”.

On to SEFPRSWDMETN [HNP301], for which, in assay [4], the “fluorescent labeling of rat prostate and sciatic nerve in live rats” value was “not showing as much contrast”. As to “Ac-PWEEPYYVVKKSSGGC [HNP401-N-4, with GGC linker, tested FAM labelled]”, the “normalized average signal intensity” value in assay [1] is 0.56±0.18. In the case of carboxyfluorescein [reference compound], the “nerve binding and nerve to muscle contrast (words)” value is “only weak non-specific binding” in assay [1]; “low signal and non-specific binding” in assay [1] (listed as Carboxyfluorescein). For the compound “Ac-PYYVVKKSSGGC [HNP401-N-8, with GGC linker, tested FAM labelled]”, in assay [1], the “normalized average signal intensity” value came to 0.98±0.31.
